Experimental data taken from patent US10913727B2, “Modulators of the integrated stress pathway” (Calico Life Sciences LLC, priority 2016, dated 2021).

System: HEK293T cells carrying the ATF4 luciferase reporter
Assay: ATF4-Luc assay, in vitro model of Vanishing Cell White Matter Disease (VWMD)
Format: cell-based
Settings: Homo sapiens, HEK-293T, 1 μg/mL tunicamycin, 7 hours, One Glo luminescence
Procedure, shortened: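 Compound at 200 nM and tunicamycin at 1 μg/mL were given together for 7 h to HEK293T cells stably transduced with an ATF4 5′-UTR-driven firefly luciferase reporter. Read-out by luminescence, reported as EC50.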

SMILES	EC50
O=C(COc1ccc(Cl)c(F)c1)NC12CCC(NC(=O)c3cccc(C(F)(F)F)n3)(CC1)CC2O (stereo not shown) [Compound 941, N-{4-[2-(4-chloro-3-fluorophenoxy)acetamido]-3-hydroxybicyclo[2.2.2]octan-1-yl}-6-(trifluoromethyl)pyridine-2-carboxamide]	< 50 nM
O=C(COc1ccc(Cl)c(F)c1)NC12CCC(NC(=O)c3cccc(N4CCOCC4)n3)(CC1)CC2O (stereo not shown) [Compound 942, N-{4-[2-(4-chloro-3-fluorophenoxy)acetamido]-3-hydroxybicyclo[2.2.2]octan-1-yl}-6-(morpholin-4-yl)pyridine-2-carboxamide]	1000 to 2000 nM
O=C(COc1ccc(Cl)c(F)c1)NC12CCC(NC(=O)c3cccc(O)n3)(CC1)CC2O (stereo not shown) [Compound 943, N-{4-[2-(4-chloro-3-fluorophenoxy)acetamido]-3-hydroxybicyclo[2.2.2]octan-1-yl}-6-hydroxypyridine-2-carboxamide]	50 to 250 nM
O=C(COc1ccc(Cl)c(F)c1)NC12CCC(NC(=O)c3cccc[n+]3[O-])(CC1)CC2O (stereo not shown) [Compound 944, N-{4-[2-(4-chloro-3-fluorophenoxy)acetamido]-3-hydroxybicyclo[2.2.2]octan-1-yl}-1-oxo-1λ^5-pyridine-2-carboxamide]	> 2000 nM
O=C(COc1ccc(Cl)c(F)c1)NC12CCC(NC(=O)c3cccc(CO)n3)(CC1)CC2O (stereo not shown) [Compound 945, N-{4-[2-(4-chloro-3-fluorophenoxy)acetamido]-3-hydroxybicyclo[2.2.2]octan-1-yl}-6-(hydroxymethyl)pyridine-2-carboxamide]	> 2000 nM
O=C(CCCc1cccc(Cl)c1)NC12CC(NC(=O)c3cnc(C(F)F)cn3)(C1)C2 [Compound 946, N-{3-[4-(3-chlorophenyl)butanamido]bicyclo[1.1.1]pentan-1-yl}-5-(difluoromethyl)pyrazine-2-carboxamide]	> 2000 nM
O=C(COCc1cccc(Cl)c1)NC12CC(NC(=O)c3cnc(C(F)F)cn3)(C1)C2 [Compound 947, N-(3-{2-[(3-chlorophenyl)methoxy]acetamido}bicyclo[1.1.1]pentan-1-yl)-5-(difluoromethyl)pyrazine-2-carboxamide]	> 2000 nM
